Laboratory results published in patent US12606541B2, “PPARg modulators and methods of use” (Eisai R&D Management Co., Ltd., priority 2020, dated 2026).

Each compound was assayed against T1, His6-TEV-PPARγ-(234-505) (Homo sapiens, UniProt P37231) (assay: TR-FRET Assay to Measure Co-R Peptide Recruitment to PPARγ). Conditions: Co-R peptide recruitment to PPARγ; read-out: TR-FRET AC50.
T1 construct: The His6-TEV-PPARγ-(234-505) protein for assay was expressed and purified; TEV cleavage site (N); made in house
T1 sequence (P37231 234-505): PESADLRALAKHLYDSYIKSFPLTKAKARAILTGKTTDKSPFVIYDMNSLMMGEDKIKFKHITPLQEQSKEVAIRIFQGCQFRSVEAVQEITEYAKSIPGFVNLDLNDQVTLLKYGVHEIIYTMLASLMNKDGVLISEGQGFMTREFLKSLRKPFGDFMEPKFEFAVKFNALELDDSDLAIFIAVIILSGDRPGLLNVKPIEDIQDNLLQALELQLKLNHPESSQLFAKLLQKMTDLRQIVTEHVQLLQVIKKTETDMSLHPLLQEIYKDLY
Format: biochemical
In short: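 Corepressor recruitment is measured by adding terbium-labeled anti-His antibody and FITC SMRT-ID2 peptide, at 5 and 200 nM final, after a 20-minute room-temperature protein–compound incubation. After one further hour, signal is converted to percent response between DMSO and 500 nM T0070907 wells.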

Row | AC50 [nM] | Compound
1 | > 1000 | COc1cc(-c2cc(C(=O)N3CCC(C(=O)NC4(c5cccc(Cl)c5)CC4)CC3)n[nH]2)c(Cl)cn1 [1-[5-(5-chloro-2-methoxypyridin-4-yl)-1H-pyrazole-3-carbonyl]-N-[1-(3-chlorophenyl)cyclopropyl]piperidine-4-carboxamide]
2 | > 1000 | O=C(NCc1cnc2c(c1)CCC2)C1CCN(C(=O)c2cc(-c3ccncc3)[nH]n2)CC1 [N-({5H,6H,7H-cyclopenta[b]pyridin-3-yl}methyl)-1-[5-(pyridin-4-yl)-1H-pyrazole-3-carbonyl]piperidine-4-carboxamide]
3 | > 1000 | COc1cccc(OC)c1CNC(=O)C1CCN(C(=O)c2cc(-c3ccncc3)[nH]n2)CC1 [N-[(2,6-dimethoxyphenyl)methyl]-1-[5-(pyridin-4-yl)-1H-pyrazole-3-carbonyl]piperidine-4-carboxamide]
4 | > 1000 | CC1CCN(C(=O)C2CCN(C(=O)c3cc(-c4ccncc4)[nH]n3)CC2)CC1 [4-{3-[4-(4-methylpiperidine-1-carbonyl)piperidine-1-carbonyl]-1H-pyrazol-5-yl}pyridine]
5 | > 1000 | COc1cc(-c2cc(C(=O)N3CCC(C(=O)Nc4cncc(C)n4)CC3)n[nH]2)c(Cl)cn1 [1-[5-(5-chloro-2-methoxypyridin-4-yl)-1H-pyrazole-3-carbonyl]-N-(6-methylpyrazin-2-yl)piperidine-4-carboxamide]
6 | > 1000 | COc1cc(-c2cc(C(=O)N3CCC(C(=O)NCC4OCCO4)CC3)n[nH]2)c(Cl)cn1 [1-[5-(5-chloro-2-methoxypyridin-4-yl)-1H-pyrazole-3-carbonyl]-N-[(1,3-dioxolan-2-yl)methyl]piperidine-4-carboxamide]
7 | > 1000 | CC(C)(C)c1ccc(CNC(=O)C2CCN(C(=O)c3cc(-c4ccncc4)[nH]n3)CC2)cn1 [N-[(6-tert-butylpyridine-3-yl)methyl]1-[5-(pyridin-4-yl)-1H-pyrazole-3-carbonyl]piperidine-4-carboxamide]
8 | > 1000 | CC(CNC(=O)C1CCCN(C(=O)c2cc(-c3ccncc3)[nH]n2)C1)c1ccccc1 (stereo not shown) [N-(2-phenylpropyl)-1-[5-(pyridin-4-yl)-1H-pyrazole-3-carbonyl]piperidine-3-carboxamide]
9 | > 1000 | CC(C)CCNC(=O)C1CCN(C(=O)c2cc(-c3ccncc3)[nH]n2)CC1 [N-(3-methylbutyl)-1-[5-(pyridin-4-yl)-1H-pyrazole-3-carbonyl]piperidine-4-carboxamide]
10 | > 1000 | COc1cc(-c2cc(C(=O)N3CCC(C(=O)NC4CCCCO4)CC3)n[nH]2)c(F)cn1 (stereo not shown) [1-[5-(5-fluoro-2-methoxypyridin-4-yl)-1H-pyrazole-3-carbonyl]-N-(oxan-2-yl)piperidine-4-carboxamide]
11 | > 1000 | COc1ccccc1CNC(=O)C1CCN(C(=O)c2cc(-c3ccncc3)[nH]n2)CC1 [N-[(2-methoxyphenyl)methyl]-1-[5-(pyridin-4-yl)-1H-pyrazole-3-carbonyl]piperidine-4-carboxamide]
12 | > 1000 | CS(=O)(=O)CCN1CCN(C(=O)C2CCN(C(=O)c3cc(-c4ccncc4)[nH]n3)CC2)CC1 [1-(2-methanesulfonylethyl)-4-{1-[5-(pyridin-4-yl)-1H-pyrazole-3-carbonyl]piperidine-4-carbonyl}piperazine]
13 | > 1000 | COc1cc(-c2cc(C(=O)N3CCC(C(=O)Nc4cccc(F)c4F)CC3)n[nH]2)c(Cl)cn1 [1-[5-(5-chloro-2-methoxypyridin-4-yl)-1H-pyrazole-3-carbonyl]-N-(2,3-difluorophenyl)piperidine-4-carboxamide]
14 | > 1000 | Cc1csc(CNC(=O)C2CCN(C(=O)c3cc(-c4ccncc4)[nH]n3)CC2)n1 [N-[(4-methyl-1,3-thiazol-2-yl)methyl]-1-[5-(pyridin-4-yl)-1H-pyrazole-3-carbonyl]piperidine-4-carboxamide]
15 | > 1000 | COc1cc(-c2cc(C(=O)N3CCC(C(=O)Nc4noc5cccc(F)c45)CC3)n[nH]2)c(Cl)cn1 [1-[5-(5-chloro-2-methoxypyridin-4-yl)-1H-pyrazole-3-carbonyl]-N-(4-fluoro-1,2-benzoxazol-3-yl)piperidine-4-carboxamide]
16 | > 1000 | COc1cc(-c2cc(C(=O)N3CCC(C(=O)NCc4c(C)nn(C)c4C)CC3)n[nH]2)c(Cl)cn1 [1-[5-(5-chloro-2-methoxypyridin-4-yl)-1H-pyrazole-3-carbonyl]-N-[(1,3,5-trimethyl-1H-pyrazol-4-yl)methyl]piperidine-4-carboxamide]
17 | > 1000 | CC1CCC(NC(=O)C2CCN(C(=O)c3cc(-c4ccnc(C(F)(F)F)c4)[nH]n3)CC2)CC1 (stereo not shown) [N-(4-methylcyclohexyl)-1-{5-[2-(trifluoromethyl)pyridin-4-yl]-1H-pyrazole-3-carbonyl}piperidine-4-carboxamide]

Row | AC50 [nM] | Compound
18 | > 1000 | COc1cc(-c2cc(C(=O)N3CCC(C(=O)Nc4cnnc5ccccc45)CC3)n[nH]2)c(Cl)cn1 [1-[5-(5-chloro-2-methoxypyridin-4-yl)-1H-pyrazole-3-carbonyl]-N-(cinnolin-4-yl)piperidine-4-carboxamide]
19 | > 1000 | O=C(NC1(c2cccc(Cl)c2)CC1)C1CCN(C(=O)c2cc(-c3ccncc3)[nH]n2)CC1 [N-[1-(3-chlorophenyl)cyclopropyl]-1-[5-(pyridin-4-yl)-1H-pyrazole-3-carbonyl]piperidine-4-carboxamide]
20 | > 1000 | COc1cc(-c2cc(C(=O)N3CCC(C(=O)NCC4(C#N)CC4)CC3)n[nH]2)c(Cl)cn1 [1-[5-(5-chloro-2-methoxypyridin-4-yl)-1H-pyrazole-3-carbonyl]-N-[(1-cyanocyclopropyl)methyl]piperidine-4-carboxamide]
21 | > 1000 | Cc1csc(CNC(=O)C2CCN(C(=O)c3cc(-c4ccncc4)[nH]n3)CC2)c1 [N-[(4-methylthiophen-2-yl)methyl]-1-[5-(pyridin-4-yl)-1H-pyrazole-3-carbonyl]piperidine-4-carboxamide]
22 | > 1000 | Cc1ccc([C@@H](C)NC(=O)C2CCN(C(=O)c3cc(-c4ccncc4)[nH]n3)CC2)cc1 [N-[(1R)-1-(4-methylphenyl)ethyl]-1-[5-(pyridin-4-yl)-1H-pyrazole-3-carbonyl]piperidine-4-carboxamide]
23 | > 1000 | COc1cc(-c2cc(C(=O)N3CCC(C(=O)NC4c5ccccc5CC4O)CC3)n[nH]2)c(Cl)cn1 (stereo not shown) [1-[5-(5-chloro-2-methoxypyridin-4-yl)-1H-pyrazole-3-carbonyl]-N-(2-hydroxy-2,3-dihydro-1H-inden-1-yl)piperidine-4-carboxamide]
24 | > 1000 | COc1cc(-c2cc(C(=O)N3CCC(C(=O)NC4CCC(C)(C)CC4)CC3)n[nH]2)ccn1 [N-(4,4-dimethylcyclohexyl)-1-[5-(2-methoxypyridin-4-yl)-1H-pyrazole-3-carbonyl]piperidine-4-carboxamide]
25 | > 1000 | CC(C)(C)c1ccc(CNC(=O)C2CCN(C(=O)c3cc(-c4ccncc4)[nH]n3)CC2)cc1 [N-[(4-tert-butylphenyl)methyl]-1-[5-(pyridin-4-yl)-1H-pyrazole-3-carbonyl]piperidine-4-carboxamide]
26 | > 1000 | COc1cc(-c2cc(C(=O)N3C[C@@H]4C[C@H]3CC4C(=O)NCc3cccc(Cl)c3)n[nH]2)c(F)cn1 (relative stereo) [(1S,4R,5R*)—N-[(3-chlorophenyl)methyl]-2-[5-(5-fluoro-2-methoxypyridin-4-yl)-1H-pyrazole-3-carbonyl]-2-azabicyclo[2.2.1]heptane-5-carboxamide]
27 | > 1000 | COc1cc(-c2cc(C(=O)N3CCC(C(=O)Nc4cnc(C)cn4)CC3)n[nH]2)c(Cl)cn1 [1-[5-(5-chloro-2-methoxypyridin-4-yl)-1H-pyrazole-3-carbonyl]-N-(5-methylpyrazin-2-yl)piperidine-4-carboxamide]
28 | > 1000 | CN1CCN(C(=O)C2CCN(C(=O)c3cc(-c4ccncc4)[nH]n3)CC2)CC1
29 | > 1000 | COc1cc(-c2cc(C(=O)N3CCC(C(=O)NCc4n[nH]c(=O)c5ccccc45)CC3)n[nH]2)c(Cl)cn1 [1-[5-(5-chloro-2-methoxypyridin-4-yl)-1H-pyrazole-3-carbonyl]-N-[(4-oxo-3,4-dihydrophthalazin-1-yl)methyl]piperidine-4-carboxamide]
30 | > 1000 | COc1cc(-c2cc(C(=O)N3CCC(C(=O)NC(C)c4cnccn4)CC3)n[nH]2)c(Cl)cn1 (stereo not shown) [1-[5-(5-chloro-2-methoxypyridin-4-yl)-1H-pyrazole-3-carbonyl]-N-[1-(pyrazin-2-yl)ethyl]piperidine-4-carboxamide]
31 | > 1000 | CN1CCC(NC(=O)C2CCN(C(=O)c3cc(-c4ccncc4)[nH]n3)CC2)CC1 [N-(1-methylpiperidin-4-yl)-1-[5-(pyridin-4-yl)-1H-pyrazole-3-carbonyl]piperidine-4-carboxamide]
32 | > 1000 | COc1cc(-c2cc(C(=O)N3CCC(C(=O)NCc4ncc(C(F)F)cn4)CC3)n[nH]2)c(Cl)cn1 [1-[5-(5-chloro-2-methoxypyridin-4-yl)-1H-pyrazole-3-carbonyl]-N-{[5-(difluoromethyl)pyrimidin-2-yl]methyl}piperidine-4-carboxamide]
33 | > 1000 | COc1cc(-c2cc(C(=O)N3CCC(C(=O)Nc4cc(C(F)(F)F)no4)CC3)n[nH]2)c(Cl)cn1 [1-[5-(5-chloro-2-methoxypyridin-4-yl)-1H-pyrazole-3-carbonyl]-N-[3-(trifluoromethyl)-1,2-oxazol-5-yl]piperidine-4-carboxamide]
34 | > 1000 | COc1cc(-c2cc(C(=O)N3CCC(C(=O)Nc4cnc5ccccn45)CC3)n[nH]2)c(Cl)cn1 [1-[5-(5-chloro-2-methoxypyridin-4-yl)-1H-pyrazole-3-carbonyl]-N-{imidazo[1,2-a]pyridin-3-yl}piperidine-4-carboxamide]
